Values of other authors, collected in patent US7610153B2, “Multi-drug titration and evaluation” (Virginia Commonwealth University, priority 2002, dated 2009).

Conditions: literature

CN(C)C(=N)N=C(N)N [metformin]
hypoglycemia: does not cause hypoglycemia
decrease in fasting and postprandial glycemia (type 2 diabetes): 60 to 70 mg/dL
